The values that follow come from patent publication US20200316064A1, “CYCLIN-DEPENDENT KINASE 2 BIOMARKERS AND USES THEREOF” (Incyte Corporation, priority 2019, published 2020).

Each structure is given as a SMILES string.

The assay addresses T1, CDK2/Cyclin E1 (Homo sapiens, UniProt P24941).
T1 construct: utilize full-length human CDK2 co-expressed as N-terminal GST-tagged protein; GST (N); purchased Carna 04-165; host or cells: baculovirus expression system
Kind of assay: CDK2/Cyclin E1 HTRF enzyme activity assay (Example A). The format is biochemical. The settings on record: 1 mM ATP. As for the experimental part: CDK2/Cyclin E1 enzyme activity assays utilize full-length human CDK2 co-expressed as N-terminal GST-tagged protein with FLAG-Cyclin E1 in a baculovirus expression system (Carna Product Number 04-165). Assays are conducted in white 384-well polystyrene plates in a final reaction volume of 8 μL. CDK2/Cyclin E1 (0.25 nM) is incubated with compounds (40 nL serially diluted in DMSO) in the presence of ATP (50 μM or 1 mM) and 50 nM ULight™-labeled eIF4E-binding protein 1 (THR37/46) peptide (PerkinElmer) in assay buffer (containing 50 mM HEPES pH 7.5, 1 mM EGTA, 10 mM MgC2, 2 mM DTT, 0.05 mg/mL BSA, and 0.01% Tween 20) for 60 minutes at room temperature. The reactions are stopped by the addition of EDTA and Europium-labeled anti-phospho-4E-BP1 antibody (PerkinElmer), for a final concentration of 15 mM and 1.5 nM, respectively. HTRF signals are read after 1 hour at room temperature on a PHERAstar FS plate reader (BMG Labtech). Data is analyzed with IDBS XLFit and GraphPad Prism 5.0 software using a three or four parameter dose response curve to determine IC50 for each compound.
(In general: TR-FRET usually uses a lanthanide donor and a delayed reading to cut background.)
A word on the IC50: it is the concentration at which inhibition is half-maximal. Low values mean greater potency, high ones weaker potency. The molecule `C[C@@H](C1CC1)N1C(=O)C2(CC2)c2cnc(NC3CCN(S(=O)(=O)c4ncc[nH]4)CC3)nc21` [Example B14, (S)-2′-((1-((1H-imidazol-2-yl)sulfonyl)piperidin-4-yl)amino)-7′-(1-cyclopropylethyl)spiro[cyclopropane-1,5′-pyrrolo[2,3-d]pyrimidin]-6′(7′H)-one] had an IC50 of no more than 50 nM. In the case of `O=C1N(C2CCCC2)c2nc(NC3CCN(S(=O)(=O)c4ccc(Cl)cc4)CC3)ncc2C12CC2` [Example B6, 2′-((1-((4-chlorophenyl)sulfonyl)piperidin-4-yl)amino)-7′-cyclopentylspiro[cyclopropane-1,5′-pyrrolo[2,3-d]pyrimidin]-6′(7′H)-one], the IC50 lay in the range of 50 to 100 nM.

`CCn1cnc(S(=O)(=O)N2CCC(Nc3ncc4c(n3)N(c3cc(F)ccc3Cl)C(=O)C43CC3)CC2)c1` [Example B19, 7′-(2-chloro-5-fluorophenyl)-2′-((1-((1-ethyl-1H-imidazol-4-yl)sulfonyl)piperidin-4-yl)amino)spiro[cyclopropane-1,5′-pyrrolo[2,3-d]pyrimidin]-6′(7′H)-one] displayed an IC50 of no more than 50 nM. The value for `CS(=O)(=O)N1CCC(Nc2ncc3c(n2)N(C2CCCC2)C(=O)C32CC2)CC1` [Example B2, 7′-cyclopentyl-2′-((1-(methylsulfonyl)piperidin-4-yl)amino)spiro[cyclopropane-1,5′-pyrrolo[2,3-d]pyrimidin]-6′(7′H)-one] was 100 to 500 nM; that for `CCN1CC(n2cc(S(=O)(=O)N3CCC(Nc4ncc5c(n4)N([C@@H](C)C4CC4)C(=O)C54CC4)CC3)cn2)C1` [Example B16, (S)-7′-(1-cyclopropylethyl)-2′-((1-((1-(1-ethylazetidin-3-yl)-1H-pyrazol-4-yl)sulfonyl)piperidin-4-yl)amino)spiro[cyclopropane-1,5′-pyrrolo[2,3-d]pyrimidin]-6′(7′H)-one] was no more than 50 nM; that for `O=C1N(c2cc3c(cc2Cl)CNCC3)c2nc(NC3CCN(S(=O)(=O)c4ncc[nH]4)CC3)ncc2C12CC2` [Example B18, 2′-((1-((1H-imidazol-2-yl)sulfonyl)piperidin-4-yl)amino)-7′-(7-chloro-1,2,3,4-tetrahydroisoquinolin-6-yl)spiro[cyclopropane-1,5′-pyrrolo[2,3-d]pyrimidin]-6′(7′H)-one] was no more than 50 nM. The value for `CC1(C)Cc2cnc(NC3CCN(S(C)(=O)=O)CC3)nc2N(c2ccccc2)C1=O` [Example A3, 6,6-dimethyl-2-((1-(methylsulfonyl)piperidin-4-yl)amino)-8-phenyl-5,8-dihydropyrido[2,3-d]pyrimidin-7(6H)-one] was 100 to 500 nM; that for `CCC(C(F)F)N1C(=O)C(C)(C)Cc2cnc(NC3CCN(S(C)(=O)=O)CC3)nc21` (racemic) [Example A4, 8-(1,1-difluorobutane-2-yl)-6,6-dimethyl-2-((1-(methylsulfonyl)piperidin-4-yl)amino)-5,8-dihydropyrido[2,3-d]pyrimidin-7(6H)-one] was 50 to 100 nM; that for `CC1(C)Cc2cnc(Nc3ccc(S(N)(=O)=O)cc3)nc2N(C2CCCC2)C1=O` [Example A1, 4-((8-cyclopentyl-6,6-dimethyl-7-oxo-5,6,7,8-tetrahydropyrido[2,3-d]pyrimidin-2-yl)amino)benzenesulfonamide] was no more than 50 nM. The value for `CC1(C)Cc2cnc(NC3CCN(S(C)(=O)=O)CC3)nc2N(C2CCOC2)C1=O` (racemic) [Example A6, 6,6-dimethyl-2-((1-(methylsulfonyl)piperidin-4-yl)amino)-8-(tetrahydrofuran-3-yl)-5,8-dihydropyrido[2,3-d]pyrimidin-7(6H)-one] was 100 to 500 nM; that for `O=C1N(C2CCCC2)c2nc(NC3CCN(S(=O)(=O)c4cccnc4)CC3)ncc2C12CC2` [Example B5, 7′-cyclopentyl-2′-((1-(pyridin-3-ylsulfonyl)piperidin-4-yl)amino)spiro[cyclopropane-1,5′-pyrrolo[2,3-d]pyrimidin]-6′(7′H)-one] was no more than 50 nM. With `O=C1N(C2CCCC2)c2nc(NC3CCN(S(=O)(=O)C4CC4)CC3)ncc2C12CC2` [Example B3, 7′-cyclopentyl-2′-((1-(cyclopropylsulfonyl)piperidin-4-yl)amino)spiro[cyclopropane-1,5′-pyrrolo[2,3-d]pyrimidin]-6′(7′H)-one], the IC50 is no more than 50 nM. In turn, `CC1CC(Nc2ncc3c(n2)N(C2CCCC2)C(=O)C32CC2)CCN1S(C)(=O)=O` (centres unmarked) [Example B1, 7′-cyclopentyl-2′-((2-methyl-1-(methylsulfonyl)piperidin-4-yl)amino)spiro[cyclopropane-1,5′-pyrrolo[2,3-d]pyrimidin]-6′(7′H)-one] returned an IC50 of 100 to 500 nM. The value for `C[C@@H](C1CC1)N1C(=O)C2(CC2)c2cnc(NC3CCN(S(=O)(=O)c4ccc(=O)[nH]c4)CC3)nc21` [Example B15, (S)-7′-(1-cyclopropylethyl)-2′-((1-((6-oxo-1,6-dihydropyridin-3-yl)sulfonyl)piperidin-4-yl)amino)spiro[cyclopropane-1,5′-pyrrolo[2,3-d]pyrimidin]-6′(7′H)-one] was no more than 50 nM; that for `O=C1N([C@@H]2CCC[C@@H](O)C2)c2nc(NC3CCN(S(=O)(=O)c4cccc(N5CCC5)n4)CC3)ncc2C12CC2` [Example B13, 2′-((1-((6-(azetidin-1-yl)pyridin-2-yl)sulfonyl)piperidin-4-yl)amino)-7′-((1R,3R)-3-hydroxycyclohexyl)spiro[cyclopropane-1,5′-pyrrolo[2,3-d]pyrimidin]-6′(7′H)-one] was no more than 50 nM; that for `CCC(C(F)F)N1C(=O)C2(CC2)c2cnc(NC3CCN(S(C)(=O)=O)CC3)nc21` (racemic) [Example B10, 7′-(1,1-difluorobutane-2-yl)-2′-((1-(methylsulfonyl)piperidin-4-yl)amino)spiro[cyclopropane-1,5′-pyrrolo[2,3-d]pyrimidin]-6′(7′H)-one] was no more than 50 nM.

For `Cc1c(N2C(=O)C3(CC3)c3cnc(NC4CCN(S(C)(=O)=O)CC4)nc32)cnn1C` [Example B11, 7′-(1,5-dimethyl-1H-pyrazol-4-yl)-2′-((1-(methylsulfonyl)piperidin-4-yl)amino)spiro[cyclopropane-1,5′-pyrrolo[2,3-d]pyrimidin]-6′(7H)-one], the IC50 was 50 to 100 nM. The value for `Cn1nccc1CN1C(=O)C(C)(C)Cc2cnc(NC3CCN(S(C)(=O)=O)CC3)nc21` [Example A5, 6,6-dimethyl-8-((1-methyl-1H-pyrazol-5-yl)methyl)-2-((1-(methylsulfonyl)piperidin-4-yl)amino)-5,8-dihydropyrido[2,3-d]pyrimidin-7(6H)-one] was 100 to 500 nM; that for `Cn1cc(S(=O)(=O)N2CCC(Nc3ncc4c(n3)N([C@@H]3CCC[C@@H](O)C3)C(=O)C43CC3)CC2)cn1` [Example B12, 7′-((1R,3R)-3-hydroxycyclohexyl)-2′-((1-((1-methyl-1H-pyrazol-4-yl)sulfonyl)piperidin-4-yl)amino)spiro[cyclopropane-1,5′-pyrrolo[2,3-d]pyrimidin]-6′(7′H)-one] was no more than 50 nM. The value for `Cn1cc(S(=O)(=O)N2CCC(Nc3ncc4c(n3)N(C3CCCC3)C(=O)C43CC3)CC2)cn1` [Example B7, 7′-cyclopentyl-2′-((1-((1-methyl-1H-pyrazol-4-yl)sulfonyl)piperidin-4-yl)amino)spiro[cyclopropane-1,5′-pyrrolo[2,3-d]pyrimidin]-6′(7′H)-one] was no more than 50 nM.
